# In publication PMC4040390 (Angewandte Chemie (International ed. in English), 2009):
# Legend:
# Format in all cases: cell-based
# [1] = tested on: Sh-IR; conditions: isomer that blocks Sh-IR
# [2] = tested on: endogenous K+ channels in dissociated hippocampal neurons; conditions: 20 μM extracellular treatment, Iss at +40 mV, n = 10
# [3] = tested on: voltage-gated Na+ channels expressed in GH3 cells; experiment: Photosensitization of voltage-gated Na+ channels expressed in GH3 cells
# [4] = tested on: voltage-gated Ca2+ channels expressed in GH3 cells; experiment: Photosensitization of voltage-gated Ca2+ channels expressed in GH3 cells
Molecule,Active Isomer [1],% of Iss blocked (380 vs 500 nm) [2],photosensitization of voltage-gated Na+ channels [3],photosensitization of voltage-gated Ca2+ channels [4]
C=CC(=O)Nc1ccc(N=Nc2ccc(NC(=O)C[N+](CC)(CC)CC)cc2)cc1 [Compound 1],trans,,,
"CC[N+](CC)(CC)CC(=O)Nc1ccc(/N=N/c2ccc(NC(=O)c3ccccc3)cc2)cc1 [Compound 7, Benzoyl-Azo-QA]",trans,35.5% ± 4.7,did not photosensitize,did not photosensitize
Propyl-Azo-QA [Compound 10],preferentially blocks in the cis form,,,
